Like-named read-outs stand apart in the source and are kept apart here.
Tested on: NL-RLuc virus
Experiment: Inhibition of HIV replication (NL-RLuc luciferase reporter virus in MT-2 cells)
Format: cell-based
Details: Human immunodeficiency virus 1, MT2, 120 h
Source text: Inhibition of HIV replication: A recombinant NL-RLuc proviral clone was constructed in which a section of the nef gene form NL4-3 was replaced with the Renilla Luciferase gene. This virus is fully infectious and can undergo multiple cycles of replication in cell culture. In addition, the luciferous reporter provides a simple and easy method for quantitating the extent of virus growth and consequently, the antiviral activity of test compounds. The plasmid pNLRLuc contains the proviral NL-Rluc DNA cloned into pUC18 at the PvuII site. The NL-RLuc virus was prepared by transfection of 293T cells with the plasmid pNLRLuc. Transfections were performed using the LipofectAMINE PLUS kit form Invitrogen (Carlsbad, Calif.) according to the manufacturer and the virus generated was titered in MT-2 cells. For susceptibility analyses, the titrated virus was used to infect MT-2 cells in the presence of compound, and after 5 days of incubation, cells were processed and quantitated for virus growth by the amount of expressed luciferase. Assay media was RPMI 1640 supplemented with 10% heat inactivated fetal bovine serum (FBS), 100 units/ml penicillin G/100 units/ml streptomycin, 10 mM HEPES buffer pH 7.55 and 2 mM L-glutamine. The results form at least 2 experiments were used to calculate the EC50 values. Luciferase was quantitated using the Dual Luciferase kit form Promega (Madison, Wis.). Susceptibility of viruses to compounds was determined by incubation in the presence of serial dilutions of the compound. The 50% effective concentration (EC50) was calculated by using the exponential form of the median effect equation where (Fa)=1/[1+(ED50/drug conc.)^m](Johnson V A, Byington R T. Infectivity Assay. In Techniques in HIV Research. ed. Aldovini A, Walker B D. 71-76. New York: Stockton Press. 1990). Activity equal to A refers to a compound having an EC50≤100 nM, while B and C denote compounds having an EC50 between 100 nM and 1 uM (B) or >1 uM (C).

| SMILES | EC50 (read-out: Activity) [µM] | EC50 (read-out: EC50 μM) [µM] |
| --- | --- | --- |
| Cc1nc(COCCN2CCOCC2)c(-c2ccc(OCCc3ccc(F)cc3)cc2)c(N2CCC(C)(C)CC2)c1[C@H](OC(C)(C)C)C(=O)O [Example 24, (S)-2-(tert-Butoxy)-2-(4-(4,4-dimethylpiperidin-1-yl)-5-(4-(4-fluorophenethoxy)phenyl)-2-methyl-6-((2-morpholinoethoxy)methyl)pyridin-3-yl)acetic acid] | < 0.1 | 0.001 |
| Cc1cc(F)ccc1CN1CCc2cc(-c3c(C(C)N(C)CC4CCOCC4)nc(C)c([C@H](OC(C)(C)C)C(=O)O)c3N3CCC(C)(C)CC3)ccc2C1 (single isomer, unassigned) [Example 150] | < 0.1 | – |
| Cc1nc(C(=O)O)c(-c2ccc(OCCc3ccc(F)cc3)cc2)c(N2CCC(C)(C)CC2)c1[C@H](OC(C)(C)C)C(=O)O [Example 38, (S)-5-(tert-Butoxy(carboxy)methyl)-4-(4,4-dimethylpiperidin-1-yl)-3-(4-(4-fluorophenethoxy)phenyl)-6-methylpicolinic acid] | 0.1 to 1 | – |
| Cc1cc(F)ccc1CN1CCc2cc(-c3c(CN4CCCC(F)(F)C4)nc(C)c([C@H](OC(C)(C)C)C(=O)O)c3N3CCC(C)(C)CC3)ccc2C1 [Example 129, (S)-2-(tert-Butoxy)-2-(6-((3,3-difluoropiperidin-1-yl)methyl)-4-(4,4-dimethylpiperidin-1-yl)-5-(2-(4-fluoro-2-methylbenzyl)-1,2,3,4-tetrahydroisoquinolin-6-yl)-2-methylpyridin-3-yl)acetic acid] | < 0.1 | – |
| Cc1cc(F)ccc1CN1CCc2cc(-c3c(CN(C)C)nc(C)c([C@H](OC(C)(C)C)C(=O)O)c3N3CCC(C)(C)CC3)ccc2C1 [Example 115, (S)-2-(tert-Butoxy)-2-(6-((dimethylamino)methyl)-4-(4,4-dimethylpiperidin-1-yl)-5-(2-(4-fluoro-2-methylbenzyl)-1,2,3,4-tetrahydroisoquinolin-6-yl)-2-methylpyridin-3-yl)acetic acid] | < 0.1 | – |
| Cc1cc(F)ccc1CN1CCc2cc(-c3c(CN4CCC5(CCC5)CC4)nc(C)c([C@H](OC(C)(C)C)C(=O)O)c3N3CCC(C)(C)CC3)ccc2C1 [Example 134, (S)-2-(6-(7-Azaspiro[3.5]nonan-7-ylmethyl)-4-(4,4-dimethylpiperidin-1-yl)-5-(2-(4-fluoro-2-methylbenzyl)-1,2,3,4-tetrahydroisoquinolin-6-yl)-2-methylpyridin-3-yl)-2-(tert-butoxy)acetic acid] | < 0.1 | 0.001 |
| Cc1cc(F)ccc1CN1CCc2cc(-c3c(Cn4ncnc4C)nc(C)c([C@H](OC(C)(C)C)C(=O)O)c3N3CCC(C)(C)CC3)ccc2C1 [Example 145, (S)-2-(tert-butoxy)-2-(4-(4,4-dimethylpiperidin-1-yl)-5-(2-(4-fluoro-2-methylbenzyl)-1,2,3,4-tetrahydroisoquinolin-6-yl)-2-methyl-6-((5-methyl-1H-1,2,4-triazol-1-yl)methyl)pyridin-3-yl)acetic acid] | < 0.1 | – |
| Cc1cc(F)ccc1CN1CCc2cc(-c3c(CN4[C@@H]5CC[C@H]4CN(C)C5)nc(C)c([C@H](OC(C)(C)C)C(=O)O)c3N3CCC(C)(C)CC3)ccc2C1 [Example 138, (S)-2-(tert-Butoxy)-2-(4-(4,4-dimethylpiperidin-1-yl)-5-(2-(4-fluoro-2-methylbenzyl)-1,2,3,4-tetrahydroisoquinolin-6-yl)-2-methyl-6-(((1R,5S)-3-methyl-3,8-diazabicyclo[3.2.1]octan-8-yl)methyl)pyridin-3-yl)acetic acid] | < 0.1 | – |
| Cc1cc(F)ccc1CN1CCc2cc(-c3c(CN4CCC4)nc(C)c([C@H](OC(C)(C)C)C(=O)O)c3N3CCC(C)(C)CC3)ccc2C1 [Example 117, (S)-2-(6-(Azetidin-1-ylmethyl)-4-(4,4-dimethylpiperidin-1-yl)-5-(2-(4-fluoro-2-methylbenzyl)-1,2,3,4-tetrahydroisoquinolin-6-yl)-2-methylpyridin-3-yl)-2-(tert-butoxy)acetic acid] | < 0.1 | – |
| Cc1nc(COCC2CN(C(=O)OC(C)(C)C)C2)c(-c2ccc(OCCc3ccc(F)cc3)cc2)c(N2CCC(C)(C)CC2)c1[C@H](OC(C)(C)C)C(=O)O [Example 21, (S)-2-(tert-Butoxy)-2-(6-(((1-(tert-butoxycarbonyl)azetidin-3-yl)methoxy)methyl)-4-(4,4-dimethylpiperidin-1-yl)-5-(4-(4-fluorophenethoxy)phenyl)-2-methylpyridin-3-yl)acetic acid] | < 0.1 | – |
| Cc1cc(F)ccc1CN1CCc2cc(-c3c(CN4CCN(C)CC4)nc(C)c([C@H](OC(C)(C)C)C(=O)O)c3N3CCC(C)(C)CC3)ccc2C1 [Example 136, (S)-2-(tert-Butoxy)-2-(4-(4,4-dimethylpiperidin-1-yl)-5-(2-(4-fluoro-2-methylbenzyl)-1,2,3,4-tetrahydroisoquinolin-6-yl)-2-methyl-6-((4-methylpiperazin-1-yl)methyl)pyridin-3-yl)acetic acid] | < 0.1 | – |
| CNc1nc(C)c([C@H](OC(C)(C)C)C(=O)O)c(N2CCC(C)(C)CC2)c1-c1ccc(OCCc2ccc(F)cc2)cc1 [Example 49, (S)-2-(tert-Butoxy)-2-(4-(4,4-dimethylpiperidin-1-yl)-5-(4-(4-fluorophenethoxy)phenyl)-2-methyl-6-(methylamino)pyridin-3-yl)acetic acid] | < 0.1 | 0.001 |
| Cc1nc(COCC2CCOCC2)c(-c2ccc(OCCc3ccc(F)cc3)cc2)c(N2CCC(C)(C)CC2)c1[C@H](OC(C)(C)C)C(=O)O [Example 19, (S)-2-(tert-Butoxy)-2-(4-(4,4-dimethylpiperidin-1-yl)-5-(4-(4-fluorophenethoxy)phenyl)-2-methyl-6-(((tetrahydro-2H-pyran-4-yl)methoxy)methyl)pyridin-3-yl)acetic acid] | < 0.1 | – |
| COCc1nc(C)c([C@H](OC(C)(C)C)C(=O)O)c(N2CCC(C)(C)CC2)c1-c1ccc(OCCc2ccc(F)cc2)cc1 [Example 3, (S)-2-(tert-Butoxy)-2-(4-(4,4-dimethylpiperidin-1-yl)-5-(4-(4-fluorophenethoxy)phenyl)-6-(methoxymethyl)-2-methylpyridin-3-yl)acetic acid] | < 0.1 | – |
| COCCNC(=O)c1nc(C)c([C@H](OC(C)(C)C)C(=O)O)c(N2CCC(C)(C)CC2)c1-c1ccc(OCCc2ccc(F)cc2)cc1 [Example 39, (S)-2-(tert-Butoxy)-2-(4-(4,4-dimethylpiperidin-1-yl)-5-(4-(4-fluorophenethoxy)phenyl)-6-((2-methoxyethyl)carbamoyl)-2-methylpyridin-3-yl)acetic acid] | < 0.1 | – |
| Cc1nc(CN(C)C)c([C@H](OC(C)(C)C)C(=O)O)c(N2CCC(C)(C)CC2)c1-c1ccc(OCCc2ccc(F)cc2)cc1 [Example 112, (S)-2-(tert-Butoxy)-2-(2-((dimethylamino)methyl)-4-(4,4-dimethylpiperidin-1-yl)-5-(4-(4-fluorophenethoxy)phenyl)-6-methylpyridin-3-yl)acetic acid] | < 0.1 | – |
| Cc1nc(CS(C)(=O)=O)c(-c2ccc(OCCc3ccc(F)cc3)cc2)c(N2CCC(C)(C)CC2)c1[C@H](OC(C)(C)C)C(=O)O [Example 18, (S)-2-(tert-Butoxy)-2-(4-(4,4-dimethylpiperidin-1-yl)-5-(4-(4-fluorophenethoxy)phenyl)-2-methyl-6-((methylsulfonyl)methyl)pyridin-3-yl)acetic acid] | < 0.1 | – |
| Cc1cc(F)ccc1CN1CCc2cc(-c3c(CN4CCCC4)nc(C)c([C@H](OC(C)(C)C)C(=O)O)c3N3CCC(C)(C)CC3)ccc2C1 [Example 118, (S)-2-(tert-Butoxy)-2-(4-(4,4-dimethylpiperidin-1-yl)-5-(2-(4-fluoro-2-methylbenzyl)-1,2,3,4-tetrahydroisoquinolin-6-yl)-2-methyl-6-(pyrrolidin-1-ylmethyl)pyridin-3-yl)acetic acid] | < 0.1 | 0.002 |
| Cc1cccc(Cl)c1CN1CCc2cc(-c3c(CN4CCC5(CC4)CC5)nc(C)c([C@H](OC(C)(C)C)C(=O)O)c3N3CCC(C)(C)CC3)ccc2C1 [Example 178, (S)-2-(6-((6-Azaspiro[2.5]octan-6-yl)methyl)-5-(2-(2-chloro-6-methylbenzyl)-1,2,3,4-tetrahydroisoquinolin-6-yl)-4-(4,4-dimethylpiperidin-1-yl)-2-methylpyridin-3-yl)-2-(tert-butoxy)acetic acid] | < 0.1 | – |
| Cc1cccc(Cl)c1CN1CCc2cc(-c3c(CN4CCCCC4)nc(C)c([C@H](OC(C)(C)C)C(=O)O)c3N3CCC(C)(C)CC3)ccc2C1 [Example 177, (S)-2-(tert-Butoxy)-2-(5-(2-(2-chloro-6-methylbenzyl)-1,2,3,4-tetrahydroisoquinolin-6-yl)-4-(4,4-dimethylpiperidin-1-yl)-2-methyl-6-(piperidin-1-ylmethyl)pyridin-3-yl)acetic acid] | < 0.1 | – |
